Experimental data taken from article PMC5626781, “A Potent Tartrate Resistant Acid Phosphatase Inhibitor to Study the Function of TRAP in Alveolar Macrophages” (Scientific Reports, 2017).

Experiments:
RAW264.7 macrophages = test: Transwell migration, osteopontin-coated membrane; format: cell-based, mouse; conditions: AubipyOMe 80 nM, 5-PNA 100 μM
Method: Migration of RAW264.7 macrophages was assessed using a transwell-culturing system with inserts (Sigma-Aldrich) coated with osteopontin (10 μg/ml, R&D). Bovine collagen-coated inserts (10 μg/ml, Advanced Biometrix, Carlsbad, USA) were used as matrix control. Cells were incubated with or without RANKL (200 ng/ml) for 72 hours to induce TRAP activity or not[75], in the presence or absence of AubipyOMe (80 nM) in quadruplicate. The previously described TRAP inhibitor 5-PNA (100 μM) was used as selective positive control for TRAP inhibition[15],[23]. The number of cells migrated to the lower well, including dead cells, was calculated relative to control cells and individual experiments were done at least six times. […]
Transwell experiment to assess macrophage migration
Migration of RAW264.7 macrophages was assessed using a transwell-culturing system with inserts (Sigma-Aldrich) coated with osteopontin (10 µg/ml, R&D). Bovine collagen-coated inserts (Advanced Biometrix, Carlsbad, USA) were used as a matrix control. RAW264.7 macrophages, pre-stimulated with 200 ng/ml RANKL for 72h to induce TRAP activity16, were seeded on 8 µm pore inserts coated with osteopontin (10 µg/ml, 250,000 cells/well) or collagen (10 μg/ml, 250,000 cells/well). Cells were cultured for 16h in the presence or absence of AubipyOMe (80 nM) in quadruplicate. The previously described TRAP inhibitor 5-PNA (100 µM) was used as selective positive control for TRAP inhibition12,17. The number of cells migrated to the lower well, including dead cells, was calculated relative to control cells and individual experiments were done at least six times. […]

other proteins = system: other proteins; design: method as in PMID 20162197, PMID 21370912; conditions: compared to TRAP isoforms; cited from earlier work
recombinant human TRAP5b = recombinant human TRAP5b (Homo sapiens, UniProt P13686); test: TRAP activity assay (PNPP) with recombinant TRAP5b; format: biochemical; conditions: pH 5.8, 30 min 37 °C, mean ± standard error, n = 3
Method: (§1) Recombinant unspecified human TRAP was purchased from R&D (Minneapolis, USA). Recombinant human TRAP5a and 5b were produced and purified according to a protocol based on several sources[70]–[72] using an ÄKTApurifier™ 10 FPLC system (GE Healthcare, Danderyd, Sweden) as previously described.
(§2) Inhibitor dilutions were prepared in acetate buffer from freshly prepared stock solutions (10 mM in DMSO). Recombinant unspecified TRAP (1.25 ng/ml, pH 4.5), TRAP5a (150 ng/mL, pH 5) or TRAP5b (150 ng/mL, pH 5.8) were incubated at 37 °C for 30 minutes with PNPP solution [10 mM PNPP, 200 mM sodium acetaat, 300 mM potassium chloride) at the indicated pH at a 1:1 ratio and increasing concentrations of NaAuCl4 (range 0–40 μM) or Au compounds (range 0–5.1 μM). To stop the reaction, 1M NaOH was added and absorption at 410 nm, with 490 nm as a reference value, was measured using a spectrophotometer.
(§3) The inhibitory effects of gold compounds were calculated as the ratio of absorbance between the treated and untreated wells. The IC50 values were calculated using nonlinear curve fitting with a variable slope in Graphpad Prism 6 (Graphpad Software, la Jolla, USA). An average IC50 of three independent experiments was calculated.

recombinant human TRAP5a = target: T1, recombinant human TRAP5a (Homo sapiens, UniProt P13686); test: TRAP activity assay (PNPP) with recombinant TRAP5a; format: biochemical; conditions: pH 5, 30 min 37 °C, mean ± standard error, n = 3
T1 construct: made in house
T1 sequence (P13686 22-325): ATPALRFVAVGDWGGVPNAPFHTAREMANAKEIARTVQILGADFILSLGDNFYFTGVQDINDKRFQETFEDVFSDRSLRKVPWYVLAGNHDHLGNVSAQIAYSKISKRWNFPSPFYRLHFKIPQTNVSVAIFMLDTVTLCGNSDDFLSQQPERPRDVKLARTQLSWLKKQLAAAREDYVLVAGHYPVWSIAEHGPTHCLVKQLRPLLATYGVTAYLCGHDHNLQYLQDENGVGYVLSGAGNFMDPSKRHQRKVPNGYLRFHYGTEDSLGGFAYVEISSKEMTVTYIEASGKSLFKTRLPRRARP
Method: as §1, §2, §3

COc1ccnc(-c2cc(OC)ccn2)c1.F[P-](F)(F)(F)(F)F.[Cl][Au+][Cl] [AubipyOMe, [Au(4,4′-dimethoxy-2,2′-bipyridine)Cl2][PF6]]
migration of RANKL-pretreated macrophages through osteopontin-coated membrane (RAW264.7 macrophages; RANKL 200 ng/ml 72 h, versus RANKL alone): significantly less migration
migration through osteopontin-coated membrane, inhibitor alone (RAW264.7 macrophages; no RANKL): did not affect migration
inhibitory effects on other proteins (other proteins): extremely moderate
IC50 (recombinant human TRAP5b): 1800 ± 300 nM
IC50 (recombinant human TRAP5a): 1300 ± 500 nM
